Measured values from ChEMBL document CHEMBL1909046, “DrugMatrix in vitro pharmacology data”.

How the values were obtained:
[1] = target: Sigma non-opioid intracellular receptor 1 (Homo sapiens, UniProt Q99720); test: DRUGMATRIX: Sigma1 radioligand binding (ligand: [3H] Haloperidol); format: cell membranes, Jurkat, Membrane; details: Not Active = under 50% inhibition at 10 µM; for Ki: read-out: Ki
[2] = target: T1, Thromboxane-A synthase (Homo sapiens, UniProt P24557); test: biochemical; format: tissue-based, Platelet; details: platelet;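 also: enzyme inhibition assay with PGH2 supplied as substrate; in other assays of this panel Not Active means under 50% inhibition at 10 µM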
T1 sequence (P24557 whole entry): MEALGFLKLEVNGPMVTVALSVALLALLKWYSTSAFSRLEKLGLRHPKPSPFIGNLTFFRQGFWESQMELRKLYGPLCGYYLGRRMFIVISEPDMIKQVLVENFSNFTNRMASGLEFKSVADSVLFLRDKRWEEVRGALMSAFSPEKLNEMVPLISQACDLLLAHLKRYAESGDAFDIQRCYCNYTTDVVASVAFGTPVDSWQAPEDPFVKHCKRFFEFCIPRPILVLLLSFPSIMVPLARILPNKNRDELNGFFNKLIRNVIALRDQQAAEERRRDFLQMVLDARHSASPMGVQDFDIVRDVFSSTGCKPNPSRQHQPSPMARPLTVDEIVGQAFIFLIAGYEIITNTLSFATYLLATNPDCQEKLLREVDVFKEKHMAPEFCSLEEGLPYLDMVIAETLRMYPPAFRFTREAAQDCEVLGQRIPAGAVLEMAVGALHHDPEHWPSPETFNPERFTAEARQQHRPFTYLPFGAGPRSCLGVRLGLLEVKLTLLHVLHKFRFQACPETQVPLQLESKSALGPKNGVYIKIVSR

[3] = DRUGMATRIX: Tumor Necrosis Factor (TNF), Non-Selective radioligand binding (ligand: [125I] TNF-alpha); format: cell membranes, Membrane; details: u-937; Not Active = under 50% inhibition at 10 µM
[4] = target: Carbonic anhydrase 2 (Homo sapiens, UniProt P00918); test: DRUGMATRIX: Carbonic Anhydrase II enzyme inhibition (substrate: 4-Nitrophenyl acetate (4-NPA)); format: tissue-based, Erythrocyte; details: erythrocyte; Not Active = under 50% inhibition at 10 µM
[5] = DRUGMATRIX: Glutamate, NMDA, Agonism radioligand binding (ligand: [3H] CGP-39653); format: cell membranes, Rattus norvegicus, Wistar, Cerebral cortex, Membrane; details: Not Active = under 50% inhibition at 10 µM
[6] = target: T2, Nitric oxide synthase, inducible (Mus musculus, UniProt P29477); design: species or system Escherichia coli;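 also: inhibition of iNOS enzyme activity measured with L-arginine as substrate; in other assays of this panel Not Active means under 50% inhibition at 10 µM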
T2 sequence (P29477 whole entry): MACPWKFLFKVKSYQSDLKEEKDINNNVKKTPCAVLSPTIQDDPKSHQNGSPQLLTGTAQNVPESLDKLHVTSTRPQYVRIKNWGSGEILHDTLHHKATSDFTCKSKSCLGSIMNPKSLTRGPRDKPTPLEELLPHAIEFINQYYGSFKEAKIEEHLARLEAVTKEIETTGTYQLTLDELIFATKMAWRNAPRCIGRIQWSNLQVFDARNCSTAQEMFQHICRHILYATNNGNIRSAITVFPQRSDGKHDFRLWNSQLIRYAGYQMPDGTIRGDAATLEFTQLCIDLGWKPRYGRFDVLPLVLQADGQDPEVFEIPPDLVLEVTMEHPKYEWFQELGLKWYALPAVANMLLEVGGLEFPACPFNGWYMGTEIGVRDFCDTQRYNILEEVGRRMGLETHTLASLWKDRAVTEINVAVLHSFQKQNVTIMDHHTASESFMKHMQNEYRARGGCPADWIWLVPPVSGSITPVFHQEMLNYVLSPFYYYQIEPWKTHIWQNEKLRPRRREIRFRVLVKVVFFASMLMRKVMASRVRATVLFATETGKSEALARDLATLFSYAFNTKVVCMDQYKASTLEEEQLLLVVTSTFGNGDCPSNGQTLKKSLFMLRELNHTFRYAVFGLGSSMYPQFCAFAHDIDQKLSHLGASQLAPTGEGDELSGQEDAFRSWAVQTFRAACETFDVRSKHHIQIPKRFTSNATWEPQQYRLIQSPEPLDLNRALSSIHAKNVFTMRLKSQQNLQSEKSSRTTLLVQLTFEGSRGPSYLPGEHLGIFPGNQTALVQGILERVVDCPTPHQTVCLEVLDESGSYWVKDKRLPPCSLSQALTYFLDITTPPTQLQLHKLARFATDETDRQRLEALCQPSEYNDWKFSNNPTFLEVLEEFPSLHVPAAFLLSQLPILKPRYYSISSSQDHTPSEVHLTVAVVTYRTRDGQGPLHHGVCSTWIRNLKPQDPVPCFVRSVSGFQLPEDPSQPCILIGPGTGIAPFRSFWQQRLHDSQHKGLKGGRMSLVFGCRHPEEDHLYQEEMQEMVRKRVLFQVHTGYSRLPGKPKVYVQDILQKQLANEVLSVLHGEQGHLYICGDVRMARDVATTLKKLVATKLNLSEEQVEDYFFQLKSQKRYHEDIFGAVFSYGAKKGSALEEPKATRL

[7] = target: T3, Estrogen receptor (Homo sapiens, UniProt P03372); details: sf9; also: in other assays of this panel Not Active means under 50% inhibition at 10 µM
T3 sequence (P03372 whole entry): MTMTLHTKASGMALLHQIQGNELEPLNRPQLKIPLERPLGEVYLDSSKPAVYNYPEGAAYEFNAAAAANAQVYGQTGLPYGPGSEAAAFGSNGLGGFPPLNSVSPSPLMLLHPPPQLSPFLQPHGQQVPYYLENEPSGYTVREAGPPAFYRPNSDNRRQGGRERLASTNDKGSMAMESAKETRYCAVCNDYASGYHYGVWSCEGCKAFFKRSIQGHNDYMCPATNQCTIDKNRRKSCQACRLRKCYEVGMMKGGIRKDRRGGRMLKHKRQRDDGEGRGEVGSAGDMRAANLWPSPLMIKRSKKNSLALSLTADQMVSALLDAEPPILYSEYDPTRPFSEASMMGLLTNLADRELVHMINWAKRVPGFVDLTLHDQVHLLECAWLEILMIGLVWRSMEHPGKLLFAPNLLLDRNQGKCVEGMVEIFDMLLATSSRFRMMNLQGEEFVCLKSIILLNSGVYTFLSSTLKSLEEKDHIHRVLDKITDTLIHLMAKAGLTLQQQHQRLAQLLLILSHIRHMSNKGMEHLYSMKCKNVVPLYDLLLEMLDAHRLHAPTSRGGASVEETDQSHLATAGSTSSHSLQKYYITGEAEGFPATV

[8] = target: Cytochrome P450 2C9 (Homo sapiens, UniProt P11712); details: bti-tn-5b1-4; also: in other assays of this panel Not Active means under 50% inhibition at 10 µM
Cytochrome P450 2C9, sequence (P11712 whole entry): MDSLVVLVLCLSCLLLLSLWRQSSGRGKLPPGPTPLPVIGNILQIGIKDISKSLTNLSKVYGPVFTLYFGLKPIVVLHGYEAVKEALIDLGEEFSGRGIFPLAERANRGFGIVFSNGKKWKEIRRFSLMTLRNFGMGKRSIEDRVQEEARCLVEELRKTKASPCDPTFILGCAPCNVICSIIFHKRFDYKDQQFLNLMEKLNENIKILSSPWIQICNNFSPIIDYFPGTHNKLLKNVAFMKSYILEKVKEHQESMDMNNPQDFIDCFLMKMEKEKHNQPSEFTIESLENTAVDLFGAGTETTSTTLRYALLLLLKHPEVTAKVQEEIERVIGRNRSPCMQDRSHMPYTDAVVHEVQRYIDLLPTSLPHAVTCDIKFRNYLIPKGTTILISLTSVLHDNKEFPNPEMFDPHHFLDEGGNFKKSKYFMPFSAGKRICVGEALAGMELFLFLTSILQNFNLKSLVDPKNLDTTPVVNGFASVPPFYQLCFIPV

Sigma non-opioid intracellular receptor 1, sequence (Q99720 whole entry): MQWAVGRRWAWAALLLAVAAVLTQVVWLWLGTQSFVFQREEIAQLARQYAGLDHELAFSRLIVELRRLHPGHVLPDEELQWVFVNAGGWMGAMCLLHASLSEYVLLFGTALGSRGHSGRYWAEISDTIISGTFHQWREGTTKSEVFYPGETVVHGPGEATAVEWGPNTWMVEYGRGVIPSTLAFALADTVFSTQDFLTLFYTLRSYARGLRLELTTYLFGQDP

Row | Structure (SMILES) | IC50 ([1]; jurkat) | IC50 [2] | IC50 [3] | Ki [3] | IC50 [4] | IC50 [5] | Ki [5] | IC50 [6] | IC50 [7] | IC50 [8] | Ki [8] | IC50 ([1]; read-out: IC50) | Ki [1]
1 | COc1cc(N)nc2[nH]c(-c3ccc(F)cc3)c(-c3ccncc3)c12 | Not Active | Not Active | Not Active | Not Active | Not Active | Not Active | Not Active | Not Active | Not Active | – | – | – | –
2 | CNS(=O)(=O)Cc1ccc2[nH]cc(CCN(C)C)c2c1 | Not Active | Not Active | Not Active | Not Active | Not Active | Not Active | Not Active | Not Active | – | Not Active | Not Active | – | –
3 | CCCc1nn(C)c2c(=O)[nH]c(-c3cc(S(=O)(=O)N4CCN(C)CC4)ccc3OCC)nc12 | Not Active | Not Active | Not Active | Not Active | Not Active | Not Active | Not Active | Not Active | – | Not Active | Not Active | – | –
4 | CC(=O)Nc1nnc(S(N)(=O)=O)s1 [ACETAZOLAMIDE] | Not Active | Not Active | – | – | – | – | – | Not Active | Not Active | Not Active | Not Active | – | –
5 | O=c1[nH]c2ccccc2n1CCCN1CCC(n2c(=O)[nH]c3cc(Cl)ccc32)CC1 [DOMPERIDONE] | Not Active | Not Active | – | – | Not Active | – | – | Not Active | – | – | – | – | –
6 | OCCN1CCN(CCCN2c3ccccc3Sc3ccc(C(F)(F)F)cc32)CC1 [FLUPHENAZINE] | – | Not Active | – | – | Not Active | – | – | Not Active | Not Active | – | – | 20 nM | 8.57 nM
7 | Nc1nc2c(c(=O)[nH]1)N(C=O)C(CNc1ccc(C(=O)N[C@@H](CCC(=O)O)C(=O)O)cc1)CN2 (stereo not given in full) [LEUCOVORIN] | Not Active | Not Active | Not Active | Not Active | Not Active | Not Active | Not Active | Not Active | – | Not Active | Not Active | – | –
8 | C[C@@H](O)[C@H]1C(=O)N2C(C(=O)O)=C(S[C@@H]3CN[C@H](C(=O)N(C)C)C3)[C@H](C)[C@H]12 [MEROPENEM] | Not Active | Not Active | Not Active | Not Active | Not Active | Not Active | Not Active | Not Active | – | Not Active | Not Active | – | –
9 | CC[C@@H](CO)NC(=O)[C@@H]1C=C2c3cccc4c3c(cn4C)C[C@H]2N(C)C1 [METHYSERGIDE] | – | Not Active | – | – | Not Active | – | – | Not Active | Not Active | Not Active | Not Active | – | –
10 | CCN(CC)CC#CCOC(=O)C(O)(c1ccccc1)C1CCCCC1 (stereo not given) [OXYBUTYNIN] | – | Not Active | – | – | Not Active | – | – | Not Active | – | Not Active | Not Active | 24.2 nM | 10.2 nM
11 | C=C(C)[C@H]1Cc2c(ccc3c2O[C@@H]2COc4cc(OC)c(OC)cc4[C@@H]2C3=O)O1 [ROTENONE] | Not Active | Not Active | Not Active | Not Active | Not Active | Not Active | Not Active | Not Active | – | Not Active | Not Active | – | –
12 | CO[C@H]1C[C@@H]2CC[C@@H](C)[C@@](O)(O2)C(=O)C(=O)N2CCCC[C@H]2C(=O)O[C@H]([C@H](C)C[C@@H]2CC[C@@H](O)[C@H](OC)C2)CC(=O)[C@H](C)/C=C(\C)[C@@H](O)[C@@H](OC)C(=O)[C@H](C)C[C@H](C)/C=C/C=C/C=C/1C [SIROLIMUS] | Not Active | Not Active | Not Active | Not Active | Not Active | Not Active | Not Active | Not Active | Not Active | – | – | – | –
13 | Nc1ccc(S(=O)(=O)Nc2ncccn2)cc1 [SULFADIAZINE] | Not Active | Not Active | Not Active | Not Active | – | Not Active | Not Active | Not Active | – | Not Active | Not Active | – | –
14 | C[C@]12CC[C@H]3[C@@H](CCC4=CC(=O)CC[C@@]43C)[C@@H]1CC[C@@H]2O [TESTOSTERONE] | Not Active | Not Active | Not Active | Not Active | Not Active | Not Active | Not Active | Not Active | Not Active | – | – | – | –
15 | CC(C)(C)NC[C@H](O)COc1nsnc1N1CCOCC1 [TIMOLOL] | Not Active | Not Active | Not Active | Not Active | Not Active | Not Active | Not Active | Not Active | – | Not Active | Not Active | – | –
16 | CCS(=O)(=O)CCn1c([N+](=O)[O-])cnc1C [TINIDAZOLE] | Not Active | Not Active | Not Active | Not Active | Not Active | Not Active | Not Active | Not Active | Not Active | – | – | – | –
17 | O=c1n(CCCN2CCN(c3cccc(Cl)c3)CC2)nc2ccccn12 [TRAZODONE] | – | Not Active | – | – | Not Active | – | – | Not Active | – | Not Active | Not Active | 2200 nM | 926 nM
18 | O=C(O)C(Cl)(Cl)Cl [TRICHLOROACETIC ACID] | Not Active | Not Active | Not Active | Not Active | Not Active | Not Active | Not Active | Not Active | – | Not Active | Not Active | – | –
19 | COc1ccc(CN2CCNCC2)c(OC)c1OC [TRIMETAZIDINE] | Not Active | Not Active | Not Active | Not Active | Not Active | Not Active | Not Active | Not Active | Not Active | – | – | – | –
